Experimental data reported in patent EP2758382B1, “HETEROCYCLOCARBONYLAMINOTHIAZOLES, COSMETIC AND DERMATOLOGICAL PREPARATIONS CONTAINING THEM, AND THEIR USE FOR THE TREATMENT AND PROPHYLAXIS OF UNWANTED PIGMENTATION OF THE SKIN” (Beiersdorf AG, priority 2011, dated 2013).

Each compound was assayed against T1, humane Tyrosinase (Homo sapiens, UniProt P14679) (assay: Enzyme test: conversion of L-DOPA to L-Dopachinon by human tyrosinase, MBTH detection, absorption at 490 nm). Settings: Konzentration 10 µg/mL; substrate L-DOPA.
T1 sequence (P14679 19-529): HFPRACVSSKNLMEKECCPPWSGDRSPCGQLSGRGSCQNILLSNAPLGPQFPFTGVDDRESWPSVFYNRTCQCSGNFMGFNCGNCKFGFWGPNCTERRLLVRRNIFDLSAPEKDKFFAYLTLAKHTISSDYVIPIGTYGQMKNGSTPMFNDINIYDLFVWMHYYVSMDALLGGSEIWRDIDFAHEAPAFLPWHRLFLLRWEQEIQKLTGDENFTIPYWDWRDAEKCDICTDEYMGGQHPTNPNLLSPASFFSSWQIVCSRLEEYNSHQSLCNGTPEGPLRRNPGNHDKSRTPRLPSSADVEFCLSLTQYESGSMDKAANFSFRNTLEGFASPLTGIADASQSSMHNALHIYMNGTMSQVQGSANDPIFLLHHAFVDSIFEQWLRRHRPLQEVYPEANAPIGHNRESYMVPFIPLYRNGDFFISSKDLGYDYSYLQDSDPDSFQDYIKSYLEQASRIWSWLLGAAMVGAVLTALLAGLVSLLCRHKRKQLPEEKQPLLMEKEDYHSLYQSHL
Format: biochemical
Text: Die Wirksamkeit der Thiazole wurde mit einem Enzymtest belegt, in der Umsatz von L-DOPA zu L-Dopachinon durch eine humane Tyrosinase gemessen wurde. Bei dieser literaturbekannten Methode (Winder, A.J. and Harris, H., New assays for the tyrosine hydroxylase and dopa oxidase activities of tyrosinase. Eur. J. Blochem. (1991), 198, 317-26) wird das Reaktionsprodukt L-Dopaquinone mit MBTH (3-methyl-2-benzothiazoline hydrazone) zu einer pinkfarbenen Substanz umgesetzt, deren Zunahme über die Zeit durch Absorption bei 490 nm gemessen wird. In Tabelle ein sind Wirksamkeitsdaten für einige der beanspruchten Substanzen beispielhaft dargestellt. Daraus lässt sich schließen, dass die erfindungsgemäßen Substanzen äußerst effektive pigmentierungs-inhibierende Substanzen sind.

Structure (SMILES) | Inhibition (% der Kontrolle)
Oc1ccc(-c2csc(N3CCOCC3)n2)c(O)c1 [4-(2-Morpholinothiazol-4-yl)benzen-1,3-diol] | 91 % der Kontrolle
CCN1CCN(c2nc(-c3ccc(O)cc3O)cs2)CC1 [4-(2-(4-Ethylpiperazin-1-yl)thiazol-4-yl)benzen-1,3-diol] | 91 % der Kontrolle
O=C(Nc1nc(-c2ccc(O)cc2O)cs1)N1CCNCC1 [N-(4-(2,4-dihydroxyphenyl)thiazol-2-yl)piperazin-1-carboxamid] | 94 % der Kontrolle
O=C(Nc1nc(-c2ccc(O)cc2O)cs1)N1CCCCC1 [N-(4-(2,4-dihydroxyphenyl)thiazol-2-yl)piperidin-1-carboxamid] | 97 % der Kontrolle
Oc1ccc(-c2csc(N3CCCCC3)n2)c(O)c1 [4-(2-(Piperidin-1-yl)thiazol-4-yl)benzen-1,3-diol] | 82 % der Kontrolle

Continued, values first:

Inhibition (% der Kontrolle) | Structure (SMILES)
94 % der Kontrolle | CCN1CCN(C(=O)Nc2nc(-c3ccc(O)cc3O)cs2)CC1 [N-(4-(2,4-dihydroxyphenyl)thiazol-2-yl)-4-ethylpiperazin-1-carboxamid]
97 % der Kontrolle | O=C(Nc1nc(-c2ccc(O)cc2O)cs1)N1CCOCC1 [N-(4-(2,4-dihydroxyphenyl)thiazol-2-yl)morpholin-4-carboxamid]
93 % der Kontrolle | Oc1ccc(-c2csc(N3CCNCC3)n2)c(O)c1 [4-(2-(Piperazin-1-yl)thiazol-4-yl)benzen-1,3-diol]
